In patent US9751858B2, “3-heteroaroylamino-propionic acid derivatives and their use as pharmaceuticals” (SANOFI, priority 2011, dated 2017):
pIC50: −log10 of the molar value.

target: T1, Recombinant human cathepsin A (Homo sapiens, UniProt P10619); assay: Cathepsin A inhibitory activity; format: biochemical; conditions: activated recombinant human cathepsin A 833 ng/ml, Bodipy FL-labeled bradykinin 2 μM, pH 5.5, 15 min room temperature
T1 construct: Recombinant human cathepsin A (residues 29-480, with a C-terminal 10-His tag); 10-His (C); purchased R&D Systems 1049-SE
T1 sequence (P10619 29-326 limits assumed): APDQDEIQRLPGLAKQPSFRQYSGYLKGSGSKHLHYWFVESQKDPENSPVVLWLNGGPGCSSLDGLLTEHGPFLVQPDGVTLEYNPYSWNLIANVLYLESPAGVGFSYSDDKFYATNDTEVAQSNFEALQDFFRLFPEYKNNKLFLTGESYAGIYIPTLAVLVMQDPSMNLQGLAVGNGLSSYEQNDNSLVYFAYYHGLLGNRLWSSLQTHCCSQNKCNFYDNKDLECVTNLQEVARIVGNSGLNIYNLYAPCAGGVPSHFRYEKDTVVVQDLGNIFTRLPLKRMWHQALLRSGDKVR
T1 sequence (P10619 327-480 limits assumed): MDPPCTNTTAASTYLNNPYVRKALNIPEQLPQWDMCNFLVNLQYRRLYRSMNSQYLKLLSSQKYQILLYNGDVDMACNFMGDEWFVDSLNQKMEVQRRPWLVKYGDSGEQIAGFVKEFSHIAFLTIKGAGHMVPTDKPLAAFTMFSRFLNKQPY
Method: a) Cathepsin a Inhibitory Activity
Briefly, cathepsin A was incubated at 10 μg/ml with cathepsin L at 1 μg/ml in activation buffer (25 mM 2-(morpholin-4-yl)-ethanesulfonic acid (MES), pH 6.0, containing 5 mM dithiothreitol (DTT)) for 15 min at 37° C.
The activated cathepsin A was diluted in assay buffer (25 mM MES, pH 5.5, containing 5 mM DTT) and mixed with the test compound (dissolved in assay buffer containing (v/v) 3% DMSO) or, in the control experiments, with the vehicle in a multiple assay plate. After incubation for 15 min at room temperature, as substrate then bradykinin carrying an N-terminal ®Bodipy FL (4,4-difluoro-5,7-dimethyl-4-bora-3a,4a-diaza-s-indacene-3-propionyl) label (JPT Peptide Technologies GmbH; dissolved in assay buffer) was added to the mixture. […] After incubation for 15 min at room temperature the reaction was stopped by the addition of stop buffer (130 mM 2-(4-(2-hydroxy-ethyl)-piperazin-1-yl)-ethanesulfonic acid, pH 7.4, containing (v/v) 0.013%® Triton X-100, 0.13% Coating Reagent 3 (Caliper Life Sciences), 6.5% DMSO and 20 μM ebelactone B (Sigma, # E0886)).
Uncleaved substrate and product were then separated by a microfluidic capillary electrophoresis on a LabChip® 3000 Drug Discovery System (12-Sipper-Chip; Caliper Life Sciences) and quantified by determination of the respective peak areas. Substrate turnover was calculated by dividing product peak area by the sum of substrate and product peak areas, and the enzyme activity and the inhibitory effect of the test compound thus quantified.

| pIC50 | SMILES |
| --- | --- |
| 6.67 | Cc1ccccc1[C@H](CC(=O)O)NC(=O)c1c[nH]c(-c2ccccc2)n1 [Example 1, (S)-3-[(2-Phenyl-1H-imidazole-4-carbonyl)-amino]-3-o-tolyl-propionic acid] |
| 5.16 | Cc1ccccc1[C@H](CC(=O)O)NC(=O)c1cc(-c2ccccc2)on1 [Example 2, (S)-3-[(5-Phenyl-isoxazole-3-carbonyl)-amino]-3-o-tolyl-propionic acid] |
| 5.30 | Cc1oc(-c2ccccc2)nc1C(=O)NC(CC(=O)O)C1CCCCC1 (stereo not drawn) [Example 3, 3-Cyclohexyl-3-[(5-methyl-2-phenyl-oxazole-4-carbonyl)-amino]-propionic acid] |
| 4.89 | Cc1oc(-c2ccccc2)nc1C(=O)NC(CC(=O)O)Cc1ccccc1 (stereo not drawn) [Example 4, 3-[(5-Methyl-2-phenyl-oxazole-4-carbonyl)-amino]-4-phenyl-butyric acid] |
| 6.60 | Cc1ccccc1[C@H](CC(=O)O)NC(=O)c1nc(-c2ccccc2)oc1C [Example 5, (S)-3-[(5-Methyl-2-phenyl-oxazole-4-carbonyl)-amino]-3-o-tolyl-propionic acid] |
| 5.38 | Cc1oc(-c2ccccc2)nc1C(=O)N[C@@H](CC(=O)O)c1ccccc1F [Example 7, (S)-3-(2-Fluoro-phenyl)-3-[(5-methyl-2-phenyl-oxazole-4-carbonyl)-amino]-propionic acid] |
| 5.27 | Cc1oc(-c2ccccc2)nc1C(=O)N[C@@H](CC(=O)O)c1cccc(F)c1 [Example 8, (S)-3-(3-Fluoro-phenyl)-3-[(5-methyl-2-phenyl-oxazole-4-carbonyl)-amino]-propionic acid] |
| 5.25 | Cc1oc(-c2ccccc2)nc1C(=O)N[C@@H](CC(=O)O)c1ccc(F)cc1 [Example 9, (S)-3-(4-Fluoro-phenyl)-3-[(5-methyl-2-phenyl-oxazole-4-carbonyl)-amino]-propionic acid] |
| 5.63 | Cc1oc(-c2ccccc2F)nc1C(=O)N[C@@H](CC(=O)O)c1ccccc1 [Example 10, (S)-3-{[2-(2-Fluoro-phenyl)-5-methyl-oxazole-4-carbonyl]-amino}-3-phenyl-propionic acid] |
| 5.31 | O=C(O)C[C@@H](Cc1ccccc1)NC(=O)c1nc(-c2ccccc2F)no1 [Example 11, (R)-3-{[3-(2-Fluoro-phenyl)-[1,2,4]oxadiazole-5-carbonyl]-amino}-4-phenyl-butyric acid] |
| < 5.00 | Cc1ccc([C@H](CC(=O)O)NC(=O)c2noc(-c3ccccc3F)n2)cc1 [Example 12, (S)-3-{[5-(2-Fluoro-phenyl)-[1,2,4]oxadiazole-3-carbonyl]-amino}-3-p-tolyl-propionic acid] |
| 6.50 | O=C(O)C[C@@H](Cc1ccccc1)NC(=O)c1noc(-c2ccccc2F)n1 [Example 13, (R)-3-{[5-(2-Fluoro-phenyl)-[1,2,4]oxadiazole-3-carbonyl]-amino}-4-phenyl-butyric acid] |
| 4.76 | C[C@@](CC(=O)O)(NC(=O)c1noc(-c2ccccc2F)n1)c1ccccc1 [Example 14, (S)-3-{[5-(2-Fluoro-phenyl)-[1,2,4]oxadiazole-3-carbonyl]-amino}-3-phenyl-butyric acid] |
| 5.31 | Cc1ccccc1[C@H](CC(=O)O)NC(=O)c1noc(-c2ccccc2F)n1 [Example 15, (S)-3-{[5-(2-Fluoro-phenyl)-[1,2,4]oxadiazole-3-carbonyl]-amino}-3-o-tolyl-propionic acid] |
| < 5.00 | Cc1cccc([C@H](CC(=O)O)NC(=O)c2noc(-c3ccccc3F)n2)c1 [Example 16, (S)-3-{[5-(2-Fluoro-phenyl)-[1,2,4]oxadiazole-3-carbonyl]-amino}-3-m-tolyl-propionic acid] |
| < 5.00 | O=C(O)C[C@H](NC(=O)c1noc(-c2ccccc2F)n1)c1ccccc1F [Example 17, (S)-3-(2-Fluoro-phenyl)-3-{[5-(2-fluoro-phenyl)-[1,2,4]oxadiazole-3-carbonyl]-amino}-propionic acid] |

| pIC50 | SMILES |
| --- | --- |
| < 5.00 | O=C(O)C[C@H](NC(=O)c1noc(-c2ccccc2F)n1)c1cccc(F)c1 [Example 18, (S)-3-(3-Fluoro-phenyl)-3-{[5-(2-fluoro-phenyl)-[1,2,4]oxadiazole-3-carbonyl]-amino}-propionic acid] |
| 5.07 | O=C(O)C[C@H](NC(=O)c1noc(-c2ccccc2F)n1)c1ccc(F)cc1 [Example 19, (S)-3-(4-Fluoro-phenyl)-3-{[5-(2-fluoro-phenyl)-[1,2,4]oxadiazole-3-carbonyl]-amino}-propionic acid] |
| 5.13 | O=C(O)C[C@H](NC(=O)c1noc(-c2cccc(F)c2F)n1)c1ccccc1 [Example 20, (S)-3-{[5-(2,3-Difluoro-phenyl)-[1,2,4]oxadiazole-3-carbonyl]-amino}-3-phenyl-propionic acid] |
| 6.82 | CCn1nc(C(=O)N[C@@H](CC(=O)O)c2ccccc2C)cc1-c1ccccc1 [Example 21, (S)-3-[(1-Ethyl-5-phenyl-1H-pyrazole-3-carbonyl)-amino]-3-o-tolyl-propionic acid] |
| 5.98 | CC(C)c1oc(-c2ccccc2)nc1C(=O)N[C@@H](CC(=O)O)c1ccccc1 [Example 22, (S)-3-[(5-Isopropyl-2-phenyl-oxazole-4-carbonyl)-amino]-3-phenyl-propionic acid] |
| 5.62 | COc1ccc([C@H](CC(=O)O)NC(=O)c2nc(-c3ccccc3)oc2C)cc1 [Example 23, (S)-3-(4-Methoxy-phenyl)-3-[(5-methyl-2-phenyl-oxazole-4-carbonyl)-amino]-propionic acid] |
| 5.19 | COc1cccc([C@H](CC(=O)O)NC(=O)c2nc(-c3ccccc3)oc2C)c1 [Example 24, (S)-3-(3-Methoxy-phenyl)-3-[(5-methyl-2-phenyl-oxazole-4-carbonyl)-amino]-propionic acid] |
| 6.51 | Cc1ccccc1[C@H](CC(=O)O)NC(=O)c1nc(-c2ccccc2F)oc1C [Example 25, (S)-3-{[2-(2-Fluoro-phenyl)-5-methyl-oxazole-4-carbonyl]-amino}-3-o-tolyl-propionic acid] |
| < 5.00 | Cc1ccccc1[C@H](CC(=O)O)NC(=O)c1cc(-c2ccc(Cl)cc2)on1 [Example 26, (S)-3-{[5-(4-Chloro-phenyl)-isoxazole-3-carbonyl]amino}-3-o-tolyl-propionic acid] |
| 5.46 | Cc1cccc([C@H](CC(=O)O)NC(=O)c2nc(-c3ccccc3F)oc2C)c1 [Example 27, (S)-3-{[2-(2-Fluoro-phenyl)-5-methyl-oxazole-4-carbonyl]-amino}-3-m-tolyl-propionic acid] |
| 5.95 | Cc1oc(-c2ccccc2)nc1C(=O)N[C@@H](CC(=O)O)c1cccc(Cl)c1 [Example 28, (S)-3-(3-Chloro-phenyl)-3-[(5-methyl-2-phenyl-oxazole-4-carbonyl)-amino]-propionic acid] |
| 6.27 | Cc1oc(-c2ccccc2F)nc1C(=O)N[C@@H](CC(=O)O)Cc1ccccc1 [Example 29, (R)-3-{[2-(2-Fluoro-phenyl)-5-methyl-oxazole-4-carbonyl]-amino}-4-phenyl-butyric acid] |
| < 5.00 | Cc1oc(-c2ccccc2F)nc1C(=O)N[C@@](C)(CC(=O)O)c1ccccc1 [Example 30, (S)-3-{[2-(2-Fluoro-phenyl)-5-methyl-oxazole-4-carbonyl]-amino}-3-phenyl-butyric acid] |
| < 5.00 | O=C(O)C[C@H](NC(=O)CCc1nc(-c2ccccc2F)no1)c1ccccc1 [Example 31, (S)-3-{3-[3-(2-Fluoro-phenyl)-[1,2,4]oxadiazol-5-yl]-propionylamino}-3-phenyl-propionic acid] |
| 5.92 | Cc1oc(-c2ccccc2)nc1C(=O)N[C@@H](CC(=O)O)c1ccccc1Cl [Example 32, (S)-3-(2-Chloro-phenyl)-3-[(5-methyl-2-phenyl-oxazole-4-carbonyl)-amino]-propionic acid] |
| 5.99 | Cc1nc(C(=O)N[C@@H](CC(=O)O)c2ccccc2)nn1-c1ccccc1Cl [Example 33, (S)-3-{[1-(2-Chloro-phenyl)-5-methyl-1H-[1,2,4]triazole-3-carbonyl]-amino}-3-phenyl-propionic acid] |

| SMILES | pIC50 |
| --- | --- |
| Cc1ccccc1[C@H](CC(=O)O)NC(=O)c1nn(C(C)C)c2ccccc12 [Example 6, (S)-3-[(1-Isopropyl-1H-indazole-3-carbonyl)-amino]-3-o-tolyl-propionic acid] | 6.46 |
